Literature values as cited in patent US5807979A, “Synthetic, three-dimensionally stabilized polypeptide mimics of HIV” (The Scripps Research Institute, priority 1995, dated 1998).

Experiments:
malaria = conditions: tested in humans; cited from earlier work
[1] = fraction of the activity of parent EGF; cited from earlier work

Substance: (Asn-Ala-Asn-Pro)3
- effectiveness of vaccine in humans (malaria): only partially effective

Substance: active fragment of epidermal growth factor (EGF), comprising amino acids 20-31: active fragment of epidermal growth factor (EGF), comprising amino acids 20-31 (CMYIEALDKYAC; Epidermal growth factor; UniProt P01133 990-1001, looked up, fragment)
- activity relative to that of the parent molecule [1]: about 10^-4
